# From ChEMBL document CHEMBL1201862, “PubChem BioAssay data set” (2004)
# Activity calls are given as the source filed them.
# What was measured:
# [1] = cytotoxicity in HEK-293T cells, dose response, cytotoxicity control for BCR NF-kB inhibitor project, luminescence, B-cell screen hits (AID 489021); assay type: functional, cell-based;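 further: HEK-293T cells carrying an NF-kB luciferase reporter; cells exposed to compound for about 14 hours before viability readout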
# [2] = Shn3 3'UTR reporter inhibitors, dose response, cell-based, Clone20 osteoblasts, firefly luciferase, cherry-picked (AID 624132); assay type: functional;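 further: firefly luciferase luminescence from reporter carrying the Shn3 3'UTR in osteoblasts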
# [3] = HepG2 cell cytotoxicity, dose response, cytotoxicity control for Shn3 inhibitor project, CellTiter-Glo, cherry-picked (AID 624134); assay type: functional, cell-based
# [4] = control 3'UTR Renilla luciferase suppression, dose response, counter-screen for Shn3 inhibitor project, cell-based, Clone20-Shn3RL, cherry-picked (AID 624133); assay type: functional
# Protein Wnt-3a = Protein Wnt-3a (Mus musculus, UniProt P27467); assay: Wnt3a-driven reporter signaling inhibition, dose response, selectivity assay for Gli-SUFU antagonist project, Wnt-LIGHT cells, luminescence (AID 651570); assay type: functional; details: read-out: IC50_Mean;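 further: Wnt-LIGHT reporter cells stimulated with conditioned medium from Wnt3a-producing cells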
# Protein Wnt-3a, sequence (P27467 whole entry): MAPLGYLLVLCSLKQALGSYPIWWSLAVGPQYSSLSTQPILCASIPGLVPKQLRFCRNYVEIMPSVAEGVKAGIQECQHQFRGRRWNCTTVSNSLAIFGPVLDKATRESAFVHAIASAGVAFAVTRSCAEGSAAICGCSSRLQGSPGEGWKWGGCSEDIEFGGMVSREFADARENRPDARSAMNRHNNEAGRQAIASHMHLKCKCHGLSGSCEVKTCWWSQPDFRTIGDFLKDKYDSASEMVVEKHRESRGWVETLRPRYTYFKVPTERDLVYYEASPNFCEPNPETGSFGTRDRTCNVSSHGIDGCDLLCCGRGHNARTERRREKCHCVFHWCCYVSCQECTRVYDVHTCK
# Leucine aminopeptidase = biological target: T1, Leucine aminopeptidase (Plasmodium falciparum 3D7, UniProt Q8IL11); assay: P. falciparum M17LAP inhibitors, primary screen, biochemical, fluorogenic H-Leu-NHMec substrate, 1536-well (AID 1619); assay type: functional
# T1 sequence (Q8IL11 whole entry): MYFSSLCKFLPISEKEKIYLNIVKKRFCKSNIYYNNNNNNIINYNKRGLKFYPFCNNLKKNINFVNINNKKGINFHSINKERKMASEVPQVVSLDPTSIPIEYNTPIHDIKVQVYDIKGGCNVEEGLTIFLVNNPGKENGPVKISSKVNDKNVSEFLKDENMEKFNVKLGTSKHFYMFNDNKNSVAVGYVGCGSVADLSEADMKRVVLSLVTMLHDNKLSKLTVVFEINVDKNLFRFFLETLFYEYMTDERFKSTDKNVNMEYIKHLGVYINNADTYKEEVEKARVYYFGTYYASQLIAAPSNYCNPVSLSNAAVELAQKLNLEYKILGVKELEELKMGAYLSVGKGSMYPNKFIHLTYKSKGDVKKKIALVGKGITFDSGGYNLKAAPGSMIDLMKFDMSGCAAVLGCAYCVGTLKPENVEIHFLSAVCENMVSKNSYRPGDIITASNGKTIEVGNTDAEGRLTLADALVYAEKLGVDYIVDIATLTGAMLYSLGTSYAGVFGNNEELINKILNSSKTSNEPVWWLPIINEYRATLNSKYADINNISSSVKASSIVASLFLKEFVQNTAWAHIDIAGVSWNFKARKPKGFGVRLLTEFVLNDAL
# [5] = biological target: Eukaryotic translation initiation factor 4E (Mus musculus, UniProt P63073); assay: eIF4E–eIF4G protein interaction inhibitors, dose response, biochemical, TR-FRET (AID 855); assay type: functional;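 further: potency for disrupting eIF4E binding to eIF4GI seen as loss of FRET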
# Eukaryotic translation initiation factor 4E, sequence (P63073 whole entry): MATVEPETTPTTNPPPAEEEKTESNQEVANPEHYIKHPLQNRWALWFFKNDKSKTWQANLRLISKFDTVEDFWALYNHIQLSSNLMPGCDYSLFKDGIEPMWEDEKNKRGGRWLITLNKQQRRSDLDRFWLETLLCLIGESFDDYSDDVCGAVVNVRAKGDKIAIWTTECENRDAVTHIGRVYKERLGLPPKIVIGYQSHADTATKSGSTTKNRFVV
# [6] = biological target: T2, Rac GTPase-activating protein 1 (Homo sapiens, UniProt Q9H0H5); assay: MgcRacGAP GTPase-activating activity inhibitors, confirmation, biochemical, ADP Hunter fluorescence, primary and confirmatory (AID 624330); assay type: functional
# T2 sequence (Q9H0H5 whole entry): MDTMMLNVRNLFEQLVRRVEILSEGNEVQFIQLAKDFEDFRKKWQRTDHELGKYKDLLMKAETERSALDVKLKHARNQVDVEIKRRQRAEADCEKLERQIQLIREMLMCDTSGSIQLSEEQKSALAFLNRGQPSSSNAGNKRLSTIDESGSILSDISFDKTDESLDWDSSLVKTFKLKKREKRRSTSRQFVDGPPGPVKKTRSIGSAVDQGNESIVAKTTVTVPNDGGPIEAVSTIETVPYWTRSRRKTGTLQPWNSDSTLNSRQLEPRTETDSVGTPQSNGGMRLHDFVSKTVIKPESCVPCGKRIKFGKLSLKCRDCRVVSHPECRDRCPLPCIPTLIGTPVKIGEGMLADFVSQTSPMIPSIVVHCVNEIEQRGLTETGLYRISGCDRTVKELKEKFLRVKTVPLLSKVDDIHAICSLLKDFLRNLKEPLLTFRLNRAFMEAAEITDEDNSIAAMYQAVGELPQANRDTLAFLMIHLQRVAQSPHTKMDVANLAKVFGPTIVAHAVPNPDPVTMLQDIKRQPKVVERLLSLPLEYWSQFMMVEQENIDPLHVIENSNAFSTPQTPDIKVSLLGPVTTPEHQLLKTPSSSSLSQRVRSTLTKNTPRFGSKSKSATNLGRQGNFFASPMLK
# [7] = inhibitors of firefly luciferase expression or activity, dose response, H4 neuroglioma cells, luminescence (AID 1990); assay type: functional, cell-based
# [8] = Luminescence Cell-Based Dose Response HTS to Identify Inhibitors of 5'UTR Stem-Loop Driven Prion Protein mRNA Translation in H4 Neuroglioblastoma Cells. [Related pubchem assays: 1827 (Project Summary), 1813 (Primary HTS)]; assay type: functional
# [9] = inhibitors of SNCA 5'UTR-driven reporter translation, confirmation, H4 neuroglioma cells, luminescence (AID 1988); assay type: functional, cell-based
# [10] = biological target: T3, Calpain-2 catalytic subunit (Sus scrofa, UniProt P43367); assay: pig calpain II inhibitor potency, dose response, biochemical, fluorogenic peptide substrate (AID 1420); assay type: functional
# T3 sequence (P43367 whole entry): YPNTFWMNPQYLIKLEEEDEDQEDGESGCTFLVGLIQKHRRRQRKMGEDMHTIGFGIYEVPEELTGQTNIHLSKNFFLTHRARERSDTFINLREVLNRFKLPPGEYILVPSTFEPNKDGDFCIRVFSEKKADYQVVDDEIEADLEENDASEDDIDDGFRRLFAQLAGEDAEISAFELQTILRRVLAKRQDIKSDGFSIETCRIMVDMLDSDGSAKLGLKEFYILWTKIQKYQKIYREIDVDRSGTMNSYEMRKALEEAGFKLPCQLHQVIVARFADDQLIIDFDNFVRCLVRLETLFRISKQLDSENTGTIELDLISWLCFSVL
# [11] = cytotoxicity in HEK-293T cells, dose response, cytotoxicity control for TCR NF-kB inhibitor project, luminescence, T-cell screen hits (AID 489026); assay type: functional, cell-based;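 further: cells exposed to compound about 14 hours before the viability readout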
# [12] = biological target: T4, Heat shock factor protein 1 (Mus musculus, UniProt P38532); assay: HSF1 potentiators in luciferase reporter cells, confirmation, cell-based, NIH3T3, luminescence, dose retest (AID 435004); assay type: functional;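 further: stress induced by proteasome inhibitor MG132 added 30 min after compound; luciferase reporter driven by HSF1 response element in NIH3T3 cells; actives raise luminescence as potentiators of the MG132 stress response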
# T4 sequence (P38532 whole entry): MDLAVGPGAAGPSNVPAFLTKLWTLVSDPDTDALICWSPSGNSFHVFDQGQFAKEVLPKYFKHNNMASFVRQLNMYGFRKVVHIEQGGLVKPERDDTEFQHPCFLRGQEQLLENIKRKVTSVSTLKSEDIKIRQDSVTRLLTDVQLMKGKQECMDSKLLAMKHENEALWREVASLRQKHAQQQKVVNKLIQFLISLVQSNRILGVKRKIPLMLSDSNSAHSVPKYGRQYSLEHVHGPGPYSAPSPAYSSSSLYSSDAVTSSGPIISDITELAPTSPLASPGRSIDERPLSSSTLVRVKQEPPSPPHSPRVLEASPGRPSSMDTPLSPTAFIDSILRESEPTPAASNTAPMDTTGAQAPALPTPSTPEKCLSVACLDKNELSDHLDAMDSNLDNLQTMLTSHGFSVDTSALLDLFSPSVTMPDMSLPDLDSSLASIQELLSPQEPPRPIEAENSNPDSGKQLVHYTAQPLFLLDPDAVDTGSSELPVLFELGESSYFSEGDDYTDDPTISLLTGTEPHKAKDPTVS
# [13] = biological target: T5, RNA-binding protein pos-1 (Caenorhabditis elegans, UniProt G5EF15); assay: inhibitors of POS-1/mex-3 RNA binding, dose response, biochemical, fluorescence polarization (AID 1964);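 further: purified POS-1 fused to maltose binding protein made in E. coli; potency of compounds blocking POS-1 binding to fluorescent RNA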
# T5 sequence (G5EF15 whole entry): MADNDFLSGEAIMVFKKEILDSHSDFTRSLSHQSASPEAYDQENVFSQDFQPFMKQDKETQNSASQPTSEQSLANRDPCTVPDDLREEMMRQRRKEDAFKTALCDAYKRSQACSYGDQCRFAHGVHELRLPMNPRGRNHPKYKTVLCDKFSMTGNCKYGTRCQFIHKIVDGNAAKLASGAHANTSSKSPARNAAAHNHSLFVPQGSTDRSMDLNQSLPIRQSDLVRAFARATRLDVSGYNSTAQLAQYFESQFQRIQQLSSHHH
# SUMO-activating enzyme [14] = biological target: T6, SUMO-activating enzyme (Homo sapiens, UniProt Q9UBT2); assay: SUMOylation inhibitor hit validation, confirmation, SUMOylation inhibitor project, biochemical, AlphaScreen (AID 2018); assay type: functional
# T6 sequence (Q9UBE0 whole entry): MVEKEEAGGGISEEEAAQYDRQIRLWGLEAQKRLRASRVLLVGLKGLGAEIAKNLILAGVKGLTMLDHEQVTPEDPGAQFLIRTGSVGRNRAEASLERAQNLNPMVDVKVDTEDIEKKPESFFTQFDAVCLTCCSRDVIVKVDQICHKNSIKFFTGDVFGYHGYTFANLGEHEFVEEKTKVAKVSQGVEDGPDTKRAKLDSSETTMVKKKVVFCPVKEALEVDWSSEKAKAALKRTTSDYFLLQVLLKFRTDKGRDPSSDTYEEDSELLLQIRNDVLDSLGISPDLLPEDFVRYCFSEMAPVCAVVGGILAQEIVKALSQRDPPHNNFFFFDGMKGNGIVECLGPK
# T6 sequence (Q9UBT2 whole entry): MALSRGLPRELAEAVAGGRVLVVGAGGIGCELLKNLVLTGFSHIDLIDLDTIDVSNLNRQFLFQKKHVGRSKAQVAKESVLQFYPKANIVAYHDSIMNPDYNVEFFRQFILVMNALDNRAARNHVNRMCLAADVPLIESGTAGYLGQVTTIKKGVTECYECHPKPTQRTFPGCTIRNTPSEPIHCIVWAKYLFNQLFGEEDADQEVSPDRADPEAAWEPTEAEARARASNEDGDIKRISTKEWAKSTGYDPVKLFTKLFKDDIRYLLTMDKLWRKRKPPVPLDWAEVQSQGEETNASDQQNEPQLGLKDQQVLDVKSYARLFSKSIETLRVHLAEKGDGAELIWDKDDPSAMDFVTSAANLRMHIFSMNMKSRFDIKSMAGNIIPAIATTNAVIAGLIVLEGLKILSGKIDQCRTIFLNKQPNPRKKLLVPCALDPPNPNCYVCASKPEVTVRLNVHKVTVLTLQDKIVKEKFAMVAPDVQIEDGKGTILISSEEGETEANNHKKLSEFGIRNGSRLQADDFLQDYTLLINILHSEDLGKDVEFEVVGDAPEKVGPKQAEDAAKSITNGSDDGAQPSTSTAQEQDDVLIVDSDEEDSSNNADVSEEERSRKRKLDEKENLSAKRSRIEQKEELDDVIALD
# [15] = biological target: T7, Zinc finger protein mex-5 (Caenorhabditis elegans, UniProt Q9XUB2); assay: MEX-5/TCR-2 RNA interaction inhibitors, dose response, biochemical, C. elegans, fluorescence polarization (AID 1960)
# T7 sequence (Q9XUB2 whole entry): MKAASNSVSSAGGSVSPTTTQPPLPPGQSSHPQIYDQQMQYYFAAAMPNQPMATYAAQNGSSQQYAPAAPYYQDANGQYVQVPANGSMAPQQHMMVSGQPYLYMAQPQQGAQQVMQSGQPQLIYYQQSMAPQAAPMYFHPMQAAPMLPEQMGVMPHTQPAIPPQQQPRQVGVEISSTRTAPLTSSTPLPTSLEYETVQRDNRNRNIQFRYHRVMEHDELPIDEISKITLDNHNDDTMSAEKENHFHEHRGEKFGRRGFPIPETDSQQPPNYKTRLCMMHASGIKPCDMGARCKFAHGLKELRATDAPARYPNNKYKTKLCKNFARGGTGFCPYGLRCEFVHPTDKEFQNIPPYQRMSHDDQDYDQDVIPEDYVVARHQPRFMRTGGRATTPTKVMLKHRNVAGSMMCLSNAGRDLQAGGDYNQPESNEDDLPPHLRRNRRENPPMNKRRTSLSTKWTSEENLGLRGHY
# SUMO-activating enzyme [16] = biological target: T6, SUMO-activating enzyme; assay: inhibitors of in vitro SUMOylation cascade, primary screen, biochemical, HTRF, uHTS (AID 2006); assay type: protein-complex assay
# [17] = biological target: Induced myeloid leukemia cell differentiation protein Mcl-1 (Homo sapiens, UniProt Q07820); assay type: functional
# Induced myeloid leukemia cell differentiation protein Mcl-1, sequence (Q07820 whole entry): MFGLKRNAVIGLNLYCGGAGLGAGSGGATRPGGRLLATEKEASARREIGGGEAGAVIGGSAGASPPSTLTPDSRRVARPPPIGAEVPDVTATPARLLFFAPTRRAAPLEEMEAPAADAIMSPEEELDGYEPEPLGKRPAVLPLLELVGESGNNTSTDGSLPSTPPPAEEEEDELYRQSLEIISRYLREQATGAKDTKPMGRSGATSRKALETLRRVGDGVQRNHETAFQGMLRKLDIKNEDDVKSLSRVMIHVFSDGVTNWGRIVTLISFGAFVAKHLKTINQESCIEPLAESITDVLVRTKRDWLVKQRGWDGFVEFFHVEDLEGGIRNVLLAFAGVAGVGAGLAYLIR
# Genome polyprotein = Genome polyprotein (dengue virus type 2, UniProt P29990); assay: Dengue-2 NS5 methyltransferase inhibitors, primary screen, biochemical, confirmation dose response (AID 588689); assay type: functional
# Genome polyprotein, sequence (P29990 2492-3391 limits assumed): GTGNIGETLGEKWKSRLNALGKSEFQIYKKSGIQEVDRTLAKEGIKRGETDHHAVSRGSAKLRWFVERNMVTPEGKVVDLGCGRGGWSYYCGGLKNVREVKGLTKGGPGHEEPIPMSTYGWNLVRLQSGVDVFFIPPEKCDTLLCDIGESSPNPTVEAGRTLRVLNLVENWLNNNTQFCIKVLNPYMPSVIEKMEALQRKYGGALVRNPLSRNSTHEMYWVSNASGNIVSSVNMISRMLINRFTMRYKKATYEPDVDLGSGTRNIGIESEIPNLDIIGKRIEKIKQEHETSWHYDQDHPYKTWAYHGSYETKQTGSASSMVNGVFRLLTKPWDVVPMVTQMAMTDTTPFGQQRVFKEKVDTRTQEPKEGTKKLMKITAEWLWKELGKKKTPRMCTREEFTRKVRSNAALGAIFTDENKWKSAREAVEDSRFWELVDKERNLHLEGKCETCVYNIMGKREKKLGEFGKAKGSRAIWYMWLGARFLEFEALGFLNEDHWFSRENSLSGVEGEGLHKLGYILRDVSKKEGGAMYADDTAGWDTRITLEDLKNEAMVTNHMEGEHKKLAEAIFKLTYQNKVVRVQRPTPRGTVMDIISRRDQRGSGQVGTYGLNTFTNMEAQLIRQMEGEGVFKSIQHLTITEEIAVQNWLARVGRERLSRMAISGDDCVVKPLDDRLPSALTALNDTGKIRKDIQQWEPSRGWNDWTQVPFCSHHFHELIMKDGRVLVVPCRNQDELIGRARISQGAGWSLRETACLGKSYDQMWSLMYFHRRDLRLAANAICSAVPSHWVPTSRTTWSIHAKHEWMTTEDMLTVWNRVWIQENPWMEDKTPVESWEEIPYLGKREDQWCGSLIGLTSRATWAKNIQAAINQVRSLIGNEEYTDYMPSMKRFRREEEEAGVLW
# [18] = NIH-3T3 fibroblast cytotoxicity, dose response, cytotoxicity control, cell-based, fluorescence, Alamar Blue, secondary assay (AID 2327); assay type: functional;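 further: NIH-3T3 mouse fibroblasts cultured with fluconazole at 8 µg/mL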
# [19] = C. albicans growth with fluconazole, confirmation, fluorescence, retest (AID 2467); assay type: functional, cell-based
# [20] = biological target: T8, Microphthalmia-associated transcription factor (Homo sapiens, UniProt O75030); assay: TRPM1 promoter luciferase signal decrease, dose response, MITF inhibitor project, cell-based, SK-MEL-5, cherry-picked, set 3 (AID 493073); assay type: functional
# T8 sequence (O75030 whole entry): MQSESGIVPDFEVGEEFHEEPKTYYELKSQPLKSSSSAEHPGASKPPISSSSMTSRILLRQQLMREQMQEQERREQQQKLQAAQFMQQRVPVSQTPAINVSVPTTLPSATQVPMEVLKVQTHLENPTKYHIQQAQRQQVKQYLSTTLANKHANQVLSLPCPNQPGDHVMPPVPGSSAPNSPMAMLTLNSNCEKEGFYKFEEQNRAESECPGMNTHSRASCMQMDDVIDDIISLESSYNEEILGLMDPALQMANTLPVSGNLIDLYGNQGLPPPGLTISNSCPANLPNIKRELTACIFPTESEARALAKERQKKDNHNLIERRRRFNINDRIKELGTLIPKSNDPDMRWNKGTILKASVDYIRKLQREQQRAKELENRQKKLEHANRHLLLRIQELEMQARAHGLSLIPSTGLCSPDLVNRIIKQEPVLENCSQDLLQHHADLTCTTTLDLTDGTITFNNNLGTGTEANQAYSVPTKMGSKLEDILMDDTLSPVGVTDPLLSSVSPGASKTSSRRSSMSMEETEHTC
# [21] = Luminescence Cell-Based Dose Retest to Confirm Inhibitors of Cancer Stem Cells. [Related pubchem assays (depositor defined):AID2717, AID2721]; assay type: functional; details: Homo sapiens
compound,measurement,setting,value
CC1CN(S(=O)(=O)c2ccc(C(=O)Nc3nc(-c4cc5ccccc5o4)cs3)cc2)CC(C)O1 (centres undefined),IC50,[1],> 80 µM (inactive)
same,AC50,[2],< 0.26 µM (active)
same,AC50,[3],1.02 µM (active)
same,AC50,[4],2.04 µM (active)
same,IC50,Protein Wnt-3a,1.28 µM (active)
Cc1cccc(Nc2nnc(S)s2)c1C,IC50,Leucine aminopeptidase,9.62 µM (active)
same,IC50,[5],> 64 µM (inactive)
same,IC50,[6],67.2 µM (active)
Cc1c(CCC(=O)N2CCC(C(=O)O)(c3ccccc3)CC2)c(=O)oc2cc3oc4c(c3cc12)CCCC4,IC50,[1],> 80 µM (inactive)
O=C(COc1ccc(C(=O)c2ccccc2)cc1)NCc1ccc(F)cc1,EC50,[7],> 120 µM (not active)
same,EC50,[8],10 µM (active)
same,EC50,[9],7.25 µM (active)
same,IC50,[10],> 50 µM (not active)
same,IC50,[11],> 80 µM (inactive)
Cc1ccc(O)c(NC(=O)COc2cc(C)ccc2C)c1,EC50,[12],> 260 µM (inactive)
same,IC50,[1],> 80 µM (inactive)
Cc1ccc(CNC(=O)c2ccc(N3CCc4ccccc43)c([N+](=O)[O-])c2)cc1,IC50,[5],> 64 µM (inactive)
CC1=C(C#N)C(=O)NC(=O)/C1=C\c1ccc(-c2cc(C)c(C)cc2[N+](=O)[O-])o1,EC50,[13],> 300 µM (not active)
same,IC50,SUMO-activating enzyme [14],5.31 µM (active)
same,EC50,[15],> 300 µM (not active)
same,IC50,SUMO-activating enzyme [16],39.7 µM (active)
same,IC50,[17],2.87 µM (active)
same,IC50,[5],40.4 µM (inactive)
same,IC50,Genome polyprotein,64.9 µM (active)
Cc1ccc(-c2cc(-c3ccc(C)cc3)[n+](C)o2)cc1.[O-][Cl+3]([O-])([O-])[O-],EC50,[18],> 160 µM (inactive)
same,EC50,[19],> 38 µM (not active)
same,AC50,[20],8.24 µM (active)
COc1ccc(/C=C2\SC(=S)N(CCC(=O)Nc3ccc(O)cc3)C2=O)cc1,IC50,[1],> 80 µM (inactive)
O=C1OC(c2cccs2)=N/C1=C/c1ccc(-c2cccc(C(=O)O)c2)o1,IC50,[17],1.53 µM (not active)
same,IC50,[5],32.7 µM (inactive)
CCOC(=O)c1c(CSc2ccccc2)n(C)c2cc(Br)c(OCC(O)CNC(CO)(CO)CO)cc12 (centres undefined),IC50,SUMO-activating enzyme [14],2.75 µM (active)
same,IC50,SUMO-activating enzyme [16],17.9 µM (active)
same,AC50,[21],1.46 µM (active)
CCc1ccc(/C=N/NC(=O)c2cc(-c3ccncc3)nc3ccccc23)s1,IC50,[11],> 80 µM (inactive)
